Blank lines part the entries; values can stand above or below the molecule they belong to.
Legend:
[1] = system: G4-Apt (DNA, G4) AGGGACGGGACCGTCTTCCAGACAAGAGTGCAGGGAGGGACGGGA; assay: biolayer interferometry (Octet RED96); details: binding buffer (composition not given), 25 °C
[2] = system: anti-VEGF165 aptamer (DNA, aptamer) CCGTCTTCCAGACAAGAGTGCAGGG; assay: biolayer interferometry (Octet RED96); details: binding buffer (composition not given), 25 °C
VEGF165 = VEGF165 (human, UniProt P15692-4 27-191); assay: BLI; BLI (Octet RED96), 25 C, 1000 rpm, 200 uL binding buffer (composition not given), VEGF165 6.25-100 nM, BSA blank as reference; details: protein: commercial, chain copies: 2
VEGF165, sequence (P15692 other isoform, or with tags, fused parts or gaps): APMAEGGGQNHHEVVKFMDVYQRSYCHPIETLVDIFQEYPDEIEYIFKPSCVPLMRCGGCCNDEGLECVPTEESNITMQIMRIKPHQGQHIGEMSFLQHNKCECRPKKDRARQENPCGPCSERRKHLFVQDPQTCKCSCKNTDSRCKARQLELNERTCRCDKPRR

K D [1]: 52900 nM
binding [2]: no
Molecule: Cc1ccc2c(c1)sc(-c1ccc(N(C)C)cc1)[n+]2C

Molecule: AGGGACGGGACCGTCTTCCAGACAAGAGTGCAGGGAGGGACGGGA (structured_DNA) [G4-Apt]
Kd (VEGF165; largely parallel G-quadruplex by CD): 0.538 nM

Molecule: CCGTCTTCCAGACAAGAGTGCAGGG (ssDNA) [anti-VEGF165 aptamer]
Kd (VEGF165; B-DNA form by CD): 0.287 nM
